Results reported in ChEMBL document CHEMBL5442219.

How the values were obtained:
Conditions in all cases: Compound concentration 10 µM
[1] = target: T1, 5-hydroxytryptamine receptor 2C (Homo sapiens) (UniProt P28335)
T1 sequence (whole entry): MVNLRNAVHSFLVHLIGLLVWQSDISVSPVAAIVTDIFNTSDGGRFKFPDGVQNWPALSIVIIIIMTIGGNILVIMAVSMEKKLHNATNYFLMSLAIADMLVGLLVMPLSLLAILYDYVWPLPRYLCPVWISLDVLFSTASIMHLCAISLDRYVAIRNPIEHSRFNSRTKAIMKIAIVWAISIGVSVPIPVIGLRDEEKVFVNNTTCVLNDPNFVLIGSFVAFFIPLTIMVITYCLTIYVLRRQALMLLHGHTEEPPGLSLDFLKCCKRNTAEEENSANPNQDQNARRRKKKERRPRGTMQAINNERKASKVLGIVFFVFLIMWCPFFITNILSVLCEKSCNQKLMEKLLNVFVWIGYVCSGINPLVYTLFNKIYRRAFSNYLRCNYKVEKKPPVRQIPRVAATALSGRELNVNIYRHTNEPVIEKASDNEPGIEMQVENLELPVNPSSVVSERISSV
Description: PDSP Primary Binding target: HTR2C - Compounds are tested at 10 uM concentration, plate are incubated at room temperature in the dark for 90 minutes. Reaction are stopped by vacuum filtration onto 0.3% polyethyleneimine soaked filter mats using Filtermate harvester. Scintilation cocktail is then melted onto microwave-dried filters on a hot plate and the radio activity is counted in Microbia counter.

[2] = target: T2, Muscarinic acetylcholine receptor M4 (Homo sapiens) (UniProt P08173)
T2 sequence (whole entry): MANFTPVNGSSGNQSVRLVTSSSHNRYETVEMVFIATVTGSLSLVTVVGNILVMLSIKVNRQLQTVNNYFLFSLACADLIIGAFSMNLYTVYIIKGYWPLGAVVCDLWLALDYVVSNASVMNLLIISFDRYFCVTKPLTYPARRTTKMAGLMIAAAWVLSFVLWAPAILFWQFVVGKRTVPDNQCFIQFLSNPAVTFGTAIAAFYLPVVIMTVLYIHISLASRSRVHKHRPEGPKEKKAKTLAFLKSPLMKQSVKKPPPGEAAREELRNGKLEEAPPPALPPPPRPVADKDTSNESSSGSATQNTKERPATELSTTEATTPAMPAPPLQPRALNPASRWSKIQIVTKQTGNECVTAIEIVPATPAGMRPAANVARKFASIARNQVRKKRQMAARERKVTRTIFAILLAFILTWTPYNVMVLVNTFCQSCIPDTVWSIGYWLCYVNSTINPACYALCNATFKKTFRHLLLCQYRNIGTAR
Description: PDSP Primary Binding target: CHRM4 - Compounds are tested at 10 uM concentration, plate are incubated at room temperature in the dark for 90 minutes. Reaction are stopped by vacuum filtration onto 0.3% polyethyleneimine soaked filter mats using Filtermate harvester. Scintilation cocktail is then melted onto microwave-dried filters on a hot plate and the radio activity is counted in Microbia counter.

[3] = target: Translocator protein (Homo sapiens) (UniProt P30536)
Chain of Translocator protein (Homo sapiens) (P30536 whole entry): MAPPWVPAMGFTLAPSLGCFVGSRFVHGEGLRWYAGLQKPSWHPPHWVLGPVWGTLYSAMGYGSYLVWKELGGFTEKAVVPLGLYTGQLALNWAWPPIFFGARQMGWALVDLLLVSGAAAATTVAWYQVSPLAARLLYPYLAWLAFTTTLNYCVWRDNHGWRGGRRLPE
Description: PDSP Primary Binding target: TSPO - Compounds are tested at 10 uM concentration, plate are incubated at room temperature in the dark for 90 minutes. Reaction are stopped by vacuum filtration onto 0.3% polyethyleneimine soaked filter mats using Filtermate harvester. Scintilation cocktail is then melted onto microwave-dried filters on a hot plate and the radio activity is counted in Microbia counter.

[4] = target: T3, Muscarinic acetylcholine receptor M1 (Homo sapiens) (UniProt P11229)
T3 sequence (whole entry): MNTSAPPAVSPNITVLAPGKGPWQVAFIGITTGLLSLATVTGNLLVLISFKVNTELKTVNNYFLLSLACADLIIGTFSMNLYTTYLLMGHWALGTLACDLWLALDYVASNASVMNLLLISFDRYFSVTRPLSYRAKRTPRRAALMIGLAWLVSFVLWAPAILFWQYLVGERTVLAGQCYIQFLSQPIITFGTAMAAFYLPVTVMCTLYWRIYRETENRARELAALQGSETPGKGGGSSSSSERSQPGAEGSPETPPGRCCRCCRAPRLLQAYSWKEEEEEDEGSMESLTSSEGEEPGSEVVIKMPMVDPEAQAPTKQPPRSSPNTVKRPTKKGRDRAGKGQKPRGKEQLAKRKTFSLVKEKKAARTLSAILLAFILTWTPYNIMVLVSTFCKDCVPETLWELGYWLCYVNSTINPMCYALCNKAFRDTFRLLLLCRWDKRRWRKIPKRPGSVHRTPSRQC
Description: PDSP Primary Binding target: CHRM1 - Compounds are tested at 10 uM concentration, plate are incubated at room temperature in the dark for 90 minutes. Reaction are stopped by vacuum filtration onto 0.3% polyethyleneimine soaked filter mats using Filtermate harvester. Scintilation cocktail is then melted onto microwave-dried filters on a hot plate and the radio activity is counted in Microbia counter.

[5] = target: T4, Alpha-1B adrenergic receptor (Homo sapiens) (UniProt P35368)
T4 sequence (whole entry): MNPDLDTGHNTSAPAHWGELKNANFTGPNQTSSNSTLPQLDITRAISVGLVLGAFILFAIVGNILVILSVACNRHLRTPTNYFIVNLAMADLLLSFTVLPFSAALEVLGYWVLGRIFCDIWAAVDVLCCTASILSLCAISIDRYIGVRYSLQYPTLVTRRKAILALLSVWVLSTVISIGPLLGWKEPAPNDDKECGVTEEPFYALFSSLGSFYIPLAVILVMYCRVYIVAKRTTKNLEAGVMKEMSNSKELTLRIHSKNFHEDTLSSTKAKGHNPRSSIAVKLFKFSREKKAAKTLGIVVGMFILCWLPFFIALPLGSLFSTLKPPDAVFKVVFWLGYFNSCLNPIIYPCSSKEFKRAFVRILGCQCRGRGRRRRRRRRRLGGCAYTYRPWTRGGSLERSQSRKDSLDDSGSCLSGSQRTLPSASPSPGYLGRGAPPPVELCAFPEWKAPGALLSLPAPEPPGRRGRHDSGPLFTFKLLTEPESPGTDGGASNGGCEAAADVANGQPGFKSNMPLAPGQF
Description: PDSP Primary Binding target: ADRA1B - Compounds are tested at 10 uM concentration, plate are incubated at room temperature in the dark for 90 minutes. Reaction are stopped by vacuum filtration onto 0.3% polyethyleneimine soaked filter mats using Filtermate harvester. Scintilation cocktail is then melted onto microwave-dried filters on a hot plate and the radio activity is counted in Microbia counter.

[6] = target: T5, 5-hydroxytryptamine receptor 1A (Homo sapiens) (UniProt P08908)
T5 sequence (whole entry): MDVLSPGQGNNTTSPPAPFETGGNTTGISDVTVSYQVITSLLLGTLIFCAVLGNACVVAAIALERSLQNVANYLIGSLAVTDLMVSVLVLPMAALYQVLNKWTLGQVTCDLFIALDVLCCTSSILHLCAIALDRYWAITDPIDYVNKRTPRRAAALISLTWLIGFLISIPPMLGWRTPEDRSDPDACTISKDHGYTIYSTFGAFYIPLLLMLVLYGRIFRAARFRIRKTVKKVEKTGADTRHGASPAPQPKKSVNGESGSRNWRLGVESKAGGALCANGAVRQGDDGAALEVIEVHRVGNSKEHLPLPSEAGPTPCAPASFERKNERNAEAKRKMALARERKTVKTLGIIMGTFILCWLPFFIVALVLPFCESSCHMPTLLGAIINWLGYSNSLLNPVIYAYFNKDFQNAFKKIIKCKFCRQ
Description: PDSP Primary Binding target: HTR1A - Compounds are tested at 10 uM concentration, plate are incubated at room temperature in the dark for 90 minutes. Reaction are stopped by vacuum filtration onto 0.3% polyethyleneimine soaked filter mats using Filtermate harvester. Scintilation cocktail is then melted onto microwave-dried filters on a hot plate and the radio activity is counted in Microbia counter.

[7] = target: Histamine H1 receptor (Homo sapiens) (UniProt P35367)
Chain of Histamine H1 receptor (Homo sapiens) (P35367 whole entry): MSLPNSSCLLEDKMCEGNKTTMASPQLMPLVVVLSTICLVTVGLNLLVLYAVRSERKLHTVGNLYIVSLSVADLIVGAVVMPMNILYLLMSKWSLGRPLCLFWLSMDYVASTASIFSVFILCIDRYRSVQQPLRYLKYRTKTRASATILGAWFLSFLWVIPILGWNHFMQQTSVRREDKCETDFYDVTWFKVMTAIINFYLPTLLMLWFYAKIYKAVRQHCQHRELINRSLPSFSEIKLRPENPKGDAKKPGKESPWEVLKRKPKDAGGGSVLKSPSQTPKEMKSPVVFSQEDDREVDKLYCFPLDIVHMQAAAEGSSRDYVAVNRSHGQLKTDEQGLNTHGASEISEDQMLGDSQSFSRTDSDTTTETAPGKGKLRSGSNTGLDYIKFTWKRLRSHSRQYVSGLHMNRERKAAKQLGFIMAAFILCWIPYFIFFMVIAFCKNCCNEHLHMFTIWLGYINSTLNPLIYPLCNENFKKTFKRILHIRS
Description: PDSP Primary Binding target: HRH1 - Compounds are tested at 10 uM concentration, plate are incubated at room temperature in the dark for 90 minutes. Reaction are stopped by vacuum filtration onto 0.3% polyethyleneimine soaked filter mats using Filtermate harvester. Scintilation cocktail is then melted onto microwave-dried filters on a hot plate and the radio activity is counted in Microbia counter.

[8] = target: T6, Alpha-1A adrenergic receptor (Homo sapiens) (UniProt P35348)
T6 sequence (whole entry): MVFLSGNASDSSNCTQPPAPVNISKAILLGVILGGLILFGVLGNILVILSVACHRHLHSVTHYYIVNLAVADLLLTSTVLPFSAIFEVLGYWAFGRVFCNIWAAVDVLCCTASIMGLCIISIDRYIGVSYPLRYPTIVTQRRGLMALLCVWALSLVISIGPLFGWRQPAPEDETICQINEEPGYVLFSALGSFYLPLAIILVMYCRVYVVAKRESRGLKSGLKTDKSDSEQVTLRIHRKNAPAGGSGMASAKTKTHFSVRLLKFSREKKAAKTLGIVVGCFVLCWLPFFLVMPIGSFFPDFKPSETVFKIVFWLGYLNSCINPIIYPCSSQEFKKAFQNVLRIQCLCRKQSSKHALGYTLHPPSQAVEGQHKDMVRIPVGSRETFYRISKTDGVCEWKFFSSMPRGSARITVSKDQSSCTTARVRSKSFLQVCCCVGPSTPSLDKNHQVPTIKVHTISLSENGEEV
Description: PDSP Primary Binding target: ADRA1A - Compounds are tested at 10 uM concentration, plate are incubated at room temperature in the dark for 90 minutes. Reaction are stopped by vacuum filtration onto 0.3% polyethyleneimine soaked filter mats using Filtermate harvester. Scintilation cocktail is then melted onto microwave-dried filters on a hot plate and the radio activity is counted in Microbia counter.

| SMILES | inhibition [1] | inhibition [2] | inhibition [3] | inhibition [4] | inhibition [5] | inhibition [6] | inhibition [7] | inhibition [8] |
| --- | --- | --- | --- | --- | --- | --- | --- | --- |
| CNC[C@H](O)c1cccc(O)c1 | 16.3% | 6.21% | 11.8% | 7.7% | 10.8% | 1.52% | -2.34% | 27.4% |
| COC(=O)C1=C(C)NC(C)=C(C(=O)OCCCN2CCC(c3ccccc3)(c3ccccc3)CC2)[C@H]1c1cccc([N+](=O)[O-])c1 | 58.1% | 24.8% | 79.8% | 30.9% | 98.6% | 83.7% | 98.8% | 98.9% |
| Clc1cccc(COc2cncc(N3CCNCC3)n2)c1 | 94.9% | 85.7% | 36.1% | 82% | 26.2% | 86% | 55.6% | 11.2% |
| C[C@@H](NCCCc1cccc(C(F)(F)F)c1)c1cccc2ccccc12 | 72.6% | -2.86% | 13.5% | 17.6% | 53.8% | 87.7% | 12.7% | 38.5% |
| O=S1(=O)c2cccc3cccc(c23)N1CCCN1CCN(c2ccc(F)cc2)CC1 | 97.4% | 1.66% | 28.7% | 12.9% | 98.1% | 91.6% | 96.9% | 97.8% |
| COc1cccc([C@@H](C)NCCCc2ccccc2Cl)c1 | 91.8% | 27.2% | 9.42% | -0.51% | 15.5% | 54.6% | 70.6% | 24% |
| CCCCCCCCCCCCCCCCOC[C@H](COP(=O)([O-])OCC[N+](C)(C)C)OC(C)=O | 67.9% | -0.21% |  | 49.9% | 71.6% | 2.85% |  | 34.5% |
| N#Cc1ccc2[nH]cc(CCCCN3CCN(c4ccc5oc(C(N)=O)cc5c4)CC3)c2c1 | 43.3% | 5.32% | -4.35% | 1.49% | 53.7% | 102% | 85.8% | 95.5% |
| O=C(Cc1ccccc1)Nc1nc2ccc(Cl)cc2c2nc(-c3ccco3)nn12 | -5.69% | -5.46% | 18.7% | 5.61% | -7.34% | -8.72% | 29.1% | 10.4% |
| COc1ccc(S(=O)(=O)c2cc(OC)ccc2S(=O)(=O)c2ccc([C@H](C)NS(C)(=O)=O)cc2)cc1 | 18.7% | -3.37% | 25.6% | -2.24% | -4.35% |  | -5.89% | 22.6% |
| Cc1ccccc1C(=O)Nc1ccc(C(=O)N2CCCC(O)c3cc(Cl)ccc32)c(C)c1 (configuration not stated) | 78.3% | -6.02% | 35.6% | -6.43% | 0.66% | 7.65% | 70.8% | 8.56% |
| Cc1cc(NC(=O)Nc2ccc(N(C)C)cc2)c2cc(F)cc(F)c2n1 | 20.1% | 2.31% | 8.35% | -7.92% | 14% |  | 6.41% | 3.42% |
| COc1cc(-n2cnc3cc(-c4ccc(Cl)cc4)sc3c2=O)ccc1OCCN1CCCC1 | 79.9% | 73.8% | 11.9% | 84.1% | 27.2% | 8.71% | 42.2% | 37.3% |
| C[C@H](CO)Nc1nc(SCc2cccc(Cl)c2F)nc2[nH]c(=O)sc12 | 15% | -0.1% |  | -2.82% | 3.03% | 6.98% | 19% | -7.6% |
| Oc1ccc2c3c1O[C@H]1c4[nH]c5c(c4C[C@@]4(O)[C@@H](C2)N(CC2CC2)CC[C@]314)C[C@@]1(O)[C@H]2Cc3ccc(O)c4c3[C@@]1(CCN2CC1CC1)[C@H]5O4 | 10.5% | -2.79% | 21.5% | 4.47% | -1.68% |  | 9.21% | 30.1% |
| CCCSc1nc(N[C@@H]2C[C@H]2c2ccc(F)c(F)c2)c2nnn([C@@H]3C[C@H](OCCO)[C@@H](O)[C@H]3O)c2n1 | -3.61% | -3.79% | 46% | 18.3% |  | 11.6% | 16.1% | 11.7% |
| C=CCN1C[C@H](C)N([C@H](c2ccc(C(=O)N(CC)CC)cc2)c2cccc(O)c2)C[C@H]1C | 0.93% | -5.52% | 20.7% | 4.09% | 10.2% |  | 8.35% | 16.8% |
| N#Cc1cccc(C(=O)Nc2cc(-c3ccccc3)nn2-c2ccccc2)c1 | 7.87% | -7.29% |  | 3.6% | -3.29% | 14.8% | -6.18% | 4.85% |
| CN1C2CCC1CC(OC(c1ccc(F)cc1)c1ccc(F)cc1)C2 (configuration not stated) | 92.9% | 95.6% | 47.8% | 94.5% | 96.5% | 21.6% |  | 98.7% |
